How the values were obtained:
[1] = test system: 786-0; experiment: NCI 60 cell line panel screen (SRB); type: cell-based, human; conditions: for Log10LC50 / Log10TGI50: 786-0 (Renal Cancer); for Log10LC50: LC50: PG=−50; for Log10TGI50: TGI: PG=0; for Log10GI50: Renal Cancer, 786-0
[2] = test system: OVCAR-8; experiment: NCI 60 cell line panel screen (SRB); type: cell-based, human; conditions: for Log10LC50 / Log10TGI50: OVCAR-8 (Ovarian Cancer); for Log10LC50: LC50: PG=−50; for Log10TGI50: TGI: PG=0; for Log10GI50: Ovarian Cancer, OVCAR-8
[3] = test system: RPMI-8226; experiment: NCI 60 cell line panel screen (SRB); type: cell-based, human; conditions: for Log10GI50: Leukemia, RPMI-8226; for Log10LC50 / Log10TGI50: RPMI-8226 (Leukemia); for Log10LC50: LC50: PG=−50; for Log10TGI50: TGI: PG=0
[4] = test system: U251; experiment: NCI 60 cell line panel screen (SRB); type: cell-based, human; conditions: for Log10GI50: CNS Cancer, U251; for Log10LC50 / Log10TGI50: U251 (CNS Cancer); for Log10LC50: LC50: PG=−50; for Log10TGI50: TGI: PG=0
[5] = test system: NCI-H322M; type: cell-based
[6] = test system: HT29; experiment: NCI 60 cell line panel screen (SRB); type: cell-based, human; conditions: for Log10GI50: Colon Cancer, HT29; for Log10LC50 / Log10TGI50: HT29 (Colon Cancer); for Log10LC50: LC50: PG=−50; for Log10TGI50: TGI: PG=0
[7] = test system: MDA-MB-435; experiment: NCI 60 cell line panel screen (SRB); type: cell-based, human; conditions: MDA-MB-435 (Breast Cancer)
[8] = test system: COLO 205; experiment: NCI 60 cell line panel screen (SRB); type: cell-based, human; conditions: for Log10LC50 / Log10TGI50: COLO 205 (Colon Cancer); for Log10LC50: LC50: PG=−50; for Log10TGI50: TGI: PG=0; for Log10GI50: Colon Cancer, COLO 205
[9] = test system: OVCAR-5; experiment: NCI 60 cell line panel screen (SRB); type: cell-based, human; conditions: for Log10LC50 / Log10TGI50: OVCAR-5 (Ovarian Cancer); for Log10LC50: LC50: PG=−50; for Log10TGI50: TGI: PG=0; for Log10GI50: Ovarian Cancer, OVCAR-5
[10] = test system: SNB-75; experiment: NCI 60 cell line panel screen (SRB); type: cell-based, human; conditions: for Log10GI50: CNS Cancer, SNB-75; for Log10LC50 / Log10TGI50: SNB-75 (CNS Cancer); for Log10LC50: LC50: PG=−50; for Log10TGI50: TGI: PG=0
[11] = test system: P. berghei NY malaria parasite; experiment: Antimalarial efficacies in vivo in mice
Description: Neither overt toxicity nor behavioral modification was observed due to drug administration in any of these mouse experiments.

[12] = test system: NCI-H226; experiment: NCI 60 cell line panel screen (SRB); type: cell-based, human; conditions: for Log10LC50 / Log10TGI50: NCI-H226 (Non-Small Cell Lung Cancer); for Log10LC50: LC50: PG=−50; for Log10TGI50: TGI: PG=0; for Log10GI50: Non-Small Cell Lung Cancer, NCI-H226
[13] = test system: UO-31; experiment: NCI 60 cell line panel screen (SRB); type: cell-based, human; conditions: for Log10GI50: Renal Cancer, UO-31; for Log10LC50 / Log10TGI50: UO-31 (Renal Cancer); for Log10LC50: LC50: PG=−50; for Log10TGI50: TGI: PG=0
[14] = test system: MDA-N; experiment: NCI 60 cell line panel screen (SRB); type: cell-based, human; conditions: for Log10GI50: Breast Cancer, MDA-N
[15] = test system: SK-MEL-28; experiment: NCI 60 cell line panel screen (SRB); type: cell-based, human; conditions: for Log10GI50: Melanoma, SK-MEL-28; for Log10LC50 / Log10TGI50: SK-MEL-28 (Melanoma); for Log10LC50: LC50: PG=−50; for Log10TGI50: TGI: PG=0
[16] = test system: TK-10; experiment: NCI 60 cell line panel screen (SRB); type: cell-based, human; conditions: for Log10GI50: Renal Cancer, TK-10; for Log10LC50 / Log10TGI50: TK-10 (Renal Cancer); for Log10LC50: LC50: PG=−50; for Log10TGI50: TGI: PG=0
[17] = test system: T-47D; experiment: NCI 60 cell line panel screen (SRB); type: cell-based, human; conditions: for Log10LC50 / Log10TGI50: T-47D (Breast Cancer); for Log10LC50: LC50: PG=−50; for Log10TGI50: TGI: PG=0
[18] = test system: HCC-2998; experiment: NCI 60 cell line panel screen (SRB); type: cell-based, human
[19] = test system: SN12C; experiment: NCI 60 cell line panel screen (SRB); type: cell-based, human
[20] = test system: SK-MEL-5; experiment: NCI 60 cell line panel screen (SRB); type: cell-based, human
[21] = test system: UACC-62; experiment: NCI 60 cell line panel screen (SRB); type: cell-based, human
[22] = test system: A498; experiment: NCI 60 cell line panel screen (SRB); type: cell-based, human
[23] = test system: SR; experiment: NCI 60 cell line panel screen (SRB); type: cell-based, human
[24] = test system: SW-620; experiment: NCI 60 cell line panel screen (SRB); type: cell-based, human

CC1CCC2C(C)C(CC(COC(=O)CCC(=O)O)CC3OC4OC5(C)CCC6C(C)CCC(C3C)C46OO5)OC3OC4(C)CCC1C32OO4 (stereo not drawn) [Compound 8a, bis-trioxane primary succinate monoester]
Log10LC50 [1]: >−4.30 log10M | Log10TGI50 [1]: >−4.30 log10M | Log10GI50 [1]: −6.45 | Log10LC50 [2]: >−4.30 log10M | Log10TGI50 [2]: >−4.30 log10M | Log10GI50 [2]: >−4.30 | Log10GI50 [3]: <−8.30 | Log10LC50 [3]: >−4.30 log10M | Log10TGI50 [3]: −6.19 log10M | Log10GI50 [4]: −8.20 | Log10LC50 [4]: >−4.30 log10M | Log10TGI50 [4]: >−4.30 log10M | Log10TGI50 ([5]; NCI-H322M (Non-Small Cell Lung Cancer), TGI: PG=0): >−4.30 log10M | Log10GI50 ([5]; Non-Small Cell Lung Cancer, NCI-H322M): −5.11 | Log10GI50 [6]: <−8.30 | Log10LC50 [6]: >−4.30 log10M | Log10TGI50 [6]: >−4.30 log10M | Log10LC50 ([7]; LC50: PG=−50): >−4.30 log10M | Log10TGI50 ([7]; TGI: PG=0): >−4.30 log10M | Log10LC50 [8]: 4.78 log10M | Log10TGI50 [8]: −6.29 log10M | Log10GI50 [8]: <−8.30 | Log10LC50 [9]: >−4.30 log10M | Log10TGI50 [9]: −6.62 log10M | Log10GI50 [9]: <−8.30 | Log10GI50 [10]: −6.47 | Log10LC50 [10]: >−4.30 log10M | Log10TGI50 [10]: >−4.30 log10M | ED50 ([11]; route IV): 2.2 mg/kg × 4 | ED90 ([11]; route IV): 6.3 mg/kg × 4 | % Parasite Supression at 10 mg/kg ([11]; route IV): 81.0% | ED50 ([11]; route PO): 9.0 mg/kg × 4 | ED90 ([11]; route PO): 15.0 mg/kg × 4 | % Parasite Supression at 10 mg/kg ([11]; route PO): 79.2% | Log10LC50 [12]: >−4.30 log10M | Log10TGI50 [12]: −6.67 log10M | Log10GI50 [12]: <−8.30 | Log10GI50 [13]: −5.46 | Log10LC50 [13]: >−4.30 log10M | Log10TGI50 [13]: >−4.30 log10M | Log10GI50 [14]: −7.29 | Log10GI50 [15]: −6.09 | Log10LC50 [15]: >−4.30 log10M | Log10TGI50 [15]: >−4.30 log10M | Log10GI50 [16]: −6.92 | Log10LC50 [16]: >−4.30 log10M | Log10TGI50 [16]: −4.52 log10M | Log10GI50 ([17]; Breast Cancer, T-47D): <−8.30 | Log10LC50 [17]: >−4.30 log10M | Log10TGI50 [17]: −4.77 log10M

C[C@@H]1CC[C@H]2[C@@H](C)C(=O)O[C@@H]3O[C@]4(C)CC[C@@H]1[C@]32OO4 [Artemisinin]
Log10LC50 [1]: >−4.00 log10M | Log10TGI50 [1]: >−4.00 log10M | Log10GI50 [1]: >−4.00 | Log10LC50 [2]: >−4.00 log10M | Log10TGI50 [2]: >−4.00 log10M | Log10GI50 [2]: >−4.00 | Log10GI50 [3]: >−4.00 | Log10LC50 [3]: >−4.00 log10M | Log10TGI50 [3]: >−4.00 log10M | Log10GI50 ([18]; Colon Cancer, HCC-2998): >−4.00 | Log10LC50 ([18]; HCC-2998 (Colon Cancer), LC50: PG=−50): >−4.00 log10M | Log10TGI50 ([18]; HCC-2998 (Colon Cancer), TGI: PG=0): >−4.00 log10M | Log10GI50 ([19]; Renal Cancer, SN12C): −4.21 | Log10LC50 ([19]; SN12C (Renal Cancer), LC50: PG=−50): >−4.00 log10M | Log10TGI50 ([19]; SN12C (Renal Cancer), TGI: PG=0): >−4.00 log10M | Log10GI50 [4]: >−4.00 | Log10LC50 [4]: >−4.00 log10M | Log10TGI50 [4]: >−4.00 log10M | Log10GI50 [6]: >−4.00 | Log10LC50 [6]: >−4.00 log10M | Log10TGI50 [6]: >−4.00 log10M | Log10GI50 ([20]; Melanoma, SK-MEL-5): >−4.10 | Log10TGI50 ([20]; SK-MEL-5 (Melanoma), TGI: PG=0): >−4.00 log10M | Log10LC50 [8]: >−4.00 log10M | Log10TGI50 [8]: >−4.00 log10M | Log10GI50 [8]: >−4.00 | Log10GI50 ([21]; Melanoma, UACC-62): >−4.00 | Log10LC50 ([21]; UACC-62 (Melanoma), LC50: PG=−50): >−4.00 log10M | Log10TGI50 ([21]; UACC-62 (Melanoma), TGI: PG=0): >−4.00 log10M | Log10LC50 [9]: >−4.00 log10M | Log10TGI50 [9]: >−4.00 log10M | Log10GI50 [9]: >−4.00 | Log10GI50 [10]: >−4.00 | Log10LC50 [10]: >−4.00 log10M | Log10TGI50 [10]: >−4.00 log10M | Log10LC50 [12]: >−4.00 log10M | Log10TGI50 [12]: >−4.00 log10M | Log10GI50 [12]: >−4.00 | Log10LC50 ([22]; A498 (Renal Cancer), LC50: PG=−50): >−4.00 log10M | Log10TGI50 ([22]; A498 (Renal Cancer), TGI: PG=0): >−4.00 log10M | Log10GI50 ([22]; Renal Cancer, A498): >−4.00 | Log10GI50 ([23]; Leukemia, SR): >−4.00 | Log10LC50 ([23]; SR (Leukemia), LC50: PG=−50): >−4.00 log10M | Log10TGI50 ([23]; SR (Leukemia), TGI: PG=0): >−4.00 log10M | Log10GI50 [13]: −4.06 | Log10LC50 [13]: >−4.00 log10M | Log10TGI50 [13]: >−4.00 log10M | Log10GI50 [14]: >−4.00 | Log10LC50 ([14]; MDA-N (Breast Cancer), LC50: PG=−50): >−4.00 log10M | Log10TGI50 ([14]; MDA-N (Breast Cancer), TGI: PG=0): >−4.00 log10M | Log10GI50 [15]: >−4.00 | Log10LC50 [15]: >−4.00 log10M | Log10TGI50 [15]: >−4.00 log10M | Log10GI50 ([24]; Colon Cancer, SW-620): >−4.00 | Log10LC50 ([24]; SW-620 (Colon Cancer), LC50: PG=−50): >−4.00 log10M | Log10TGI50 ([24]; SW-620 (Colon Cancer), TGI: PG=0): >−4.00 log10M | Log10GI50 [16]: >−4.00 | Log10LC50 [16]: >−4.00 log10M | Log10TGI50 [16]: >−4.00 log10M | Log10LC50 [17]: >−4.00 log10M | Log10TGI50 [17]: >−4.00 log10M

Reference: patent publication US7417156B2, “Orally active, antimalarial, anticancer, artemisinin-derived trioxane dimers” (Johns Hopkins University, priority 2002, dated 2008)
